Results reported in US4209426A, “Polypeptides related to somatostatin” (American Home Products Corporation, priority 1979, dated 1980).
Counter-ions that a name gives are not always drawn. Bridge positions count the residues as written; N and C are the ends. Square brackets hold non-standard residues; d marks the D form. Peptide text beside a SMILES is read from it.

Key:
Format in all cases: in vivo
glucagon = test: Arginine-stimulated glucagon secretion in Nembutal-anesthetized rats, radioimmunoassay of blood; conditions: for GLUN: albino male rats; for dose with selectivity of action toward glucagon: rats, subcutaneous, summary statement
Method: (§1) The biological activity of the products of the preceding preparatory examples were determined by the following procedure:
(§2) Albino male rats were administered Nembutal intraperitoneally at a dose of 50 milligrams per kilogram. Fifteen minutes later a subcutaneous injection of the test compound of physiological saline was administered. Ten minutes later 0.5 milliliters of arginine (300 milligrams per milliliter, pH 7.2) is injected into the heart. Five minutes after receipt of the arginine the rats are decapitated and blood is collected into trasylol-EDTA. An appropriate aliquot was assayed for growth hormone (GH), insulin and glucagon by radio immunoassay.

growth hormone (GH) = test: Arginine-stimulated growth hormone secretion in Nembutal-anesthetized rats, radioimmunoassay of blood; conditions: for GH: albino male rats; for dose effective for reducing secretion of growth hormone, glucagon, and insulin levels: rats, subcutaneous, summary statement covering GH
Method: as §1, §2

insulin = test: Arginine-stimulated insulin secretion in Nembutal-anesthetized rats, radioimmunoassay of blood; conditions: albino male rats
Method: as §1, §2

[1] = 200 μg/kg subcutaneous, blood 15 min after compound, control 379 ± 109 (Example 2), 46 ± 72 (Example 3)
[2] = 200 μg/kg subcutaneous, blood 15 min after compound (5 min after arginine), control 268 ± 46 (Example 2), 407 ± 62 (Example 3)
[3] = 200 μg/kg subcutaneous, blood 15 min after compound, control 323 ± 28 (Example 2), 271 ± 44 (Example 3)

C[C@@H](O)[C@@H]1NC(=O)[C@H](Cc2ccccc2)NC(=O)[C@H]([C@@H](C)O)NC(=O)[C@H](CCCCN)NC(=O)[C@@H](Cc2c[nH]c3ccccc23)NC(=O)[C@H](Cc2ccccc2)NC(=O)[C@H](Cc2ccccc2)NC(=O)[C@H](Cc2ccc(O)cc2)NC(=O)[C@H](Cc2c[nH]cn2)NC(=O)[C@@H](N)CSSC[C@@H](C(=O)O)NC(=O)[C@H](CO)NC1=O [Example 2, L-Cysteinyl-L-histidyl-L-tyrosyl-L-phenylalanyl-L-phenylalanyl-D-tryptophyl-L-lysyl-L-threonyl-L-phenylalanyl-L-threonyl-L-seryl-L-cysteine cyclic (1-12) disulfide diacetate salt] (H-CHYFF[dW]KTFTSC-OH; disulfide 1-12)
GLUN (glucagon; [1]): 58 ± 24 pg/mL
dose with selectivity of action toward glucagon (glucagon): ≤ 10 micrograms per kilogram
GH (growth hormone (GH); [2]): 68 ± 14 ng/mL
dose effective for reducing secretion of growth hormone, glucagon, and insulin levels (growth hormone (GH)): ≤ 50 micrograms per kilogram
INS (insulin; [3]): 254 ± 38 μU/ml.

C[C@@H](O)[C@@H]1NC(=O)[C@H](Cc2ccccc2)NC(=O)[C@H]([C@@H](C)O)NC(=O)[C@H](CCCCN)NC(=O)[C@@H](Cc2c[nH]c3ccccc23)NC(=O)[C@H](Cc2ccccc2)NC(=O)[C@H](Cc2ccccc2)NC(=O)[C@H](Cc2ccc(O)cc2)NC(=O)[C@H](CCCNC(=N)N)NC(=O)[C@@H](N)CSSC[C@@H](C(=O)O)NC(=O)[C@H](CO)NC1=O [Example 3, L-Cysteinyl-L-arginyl-L-tyrosyl-L-phenylalanyl-L-phenylalanyl-D-tryptophyl-L-lysyl-L-threonyl-L-phenylalanyl-L-threonyl-L-seryl-L-cysteine cyclic (1-12) disulfide triacetate salt] (H-CRYFF[dW]KTFTSC-OH; disulfide 1-12)
GLUN (glucagon; 10 μg/kg subcutaneous, control 52 ± 10): 12 ± 4 pg/mL
GLUN (glucagon; 50 μg/kg subcutaneous, control 86 ± 6): 12 ± 4 pg/mL
GLUN (glucagon; [1]): 13 ± 3 pg/mL
dose with selectivity of action toward glucagon (glucagon): ≤ 10 micrograms per kilogram
GH (growth hormone (GH); 10 μg/kg subcutaneous, control 335 ± 33): 207 ± 29 ng/mL
GH (growth hormone (GH); 50 μg/kg subcutaneous, control 202 ± 11): 80 ± 16 ng/mL
GH (growth hormone (GH); [2]): 101 ± 24 ng/mL
dose effective for reducing secretion of growth hormone, glucagon, and insulin levels (growth hormone (GH)): ≤ 50 micrograms per kilogram
INS (insulin; 10 μg/kg subcutaneous, control 309 ± 31): 278 ± 36 μU/ml.
INS (insulin; 50 μg/kg subcutaneous, control 238 ± 23): 85 ±14 μU/ml.
INS (insulin; [3]): 59 ± 16 μU/ml.
